Measured values as given in the supplement of paper PMC10307832.

Columns and labels:
Assay in all cases: relative viability (nuclei count vs DMSO), 5 days (fraction); higher = more cells survive
[1] = test system: HCC-44
How it was run: (§1)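 Lung cancer cell lines in 1536-well plates got either a single drug or a fixed anchor-drug dose together with five library-drug doses (not always all listed) in √10 steps, by pin tool, on the day after seeding. Nuclei were counted after 5 days, and relative viability is the treated-to-vehicle ratio of nuclei counts. Values are medians of duplicate plates.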

[2] = test system: NCI-H2085
How it was run: as §1

[3] = test system: NCI-H2170
How it was run: as §1

[4] = test system: EPLC-272H
How it was run: as §1

[5] = test system: EKVX
How it was run: as §1

[6] = test system: LOU-NH91
How it was run: as §1

[7] = test system: NCI-H2023
How it was run: as §1

[8] = test system: NCI-H2405
How it was run: as §1

[9] = test system: PC-14
How it was run: as §1

[10] = test system: NCI-H1793
How it was run: as §1

[11] = test system: NCI-H1650
How it was run: as §1

[12] = test system: SW 900
How it was run: as §1

[13] = test system: NCI-H3122
How it was run: as §1

[14] = test system: COR-L23
How it was run: as §1

[15] = test system: NCI-H1734
How it was run: as §1

[16] = test system: ABC-1
How it was run: as §1

[17] = test system: NCI-H520
How it was run: as §1

[18] = test system: NCI-H441
How it was run: as §1

[19] = test system: NCI-H2347
How it was run: as §1

[20] = test system: 201T
How it was run: as §1

[21] = test system: RERF-LC-KJ
How it was run: as §1

[22] = test system: NCI-H647
How it was run: as §1

[23] = test system: NCI-H1993
How it was run: as §1

## CC(C)Oc1cc(Nc2nc(N[C@@H](C)c3ccc(F)cn3)ncc2Cl)n[nH]1 [AZ23] + Cc1cc(Nc2cc(N3CCN(C)CC3)nc(Sc3ccc(NC(=O)C4CC4)cc3)n2)n[nH]1 [Tozasertib] (partner 0.1 µM)
[1]; first compound 0.01 µM
  relative viability: 0.991
[1]; first compound 0.03162 µM
  relative viability: 0.841
[1]; first compound 0.3162 µM
  relative viability: 1.15
[2]; first compound 0.01 µM
  relative viability: 0.799
[2]; first compound 0.03162 µM
  relative viability: 0.855
[2]; first compound 0.3162 µM
  relative viability: 0.803
[3]; first compound 0.01 µM
  relative viability: 0.836
[3]; first compound 0.03162 µM
  relative viability: 0.752
[3]; first compound 0.3162 µM
  relative viability: 0.831
[4]; first compound 0.01 µM
  relative viability: 0.384
[4]; first compound 0.03162 µM
  relative viability: 0.263
[4]; first compound 0.3162 µM
  relative viability: 0.246
[5]; first compound 0.01 µM
  relative viability: 0.471
[5]; first compound 0.03162 µM
  relative viability: 0.458
[5]; first compound 0.3162 µM
  relative viability: 0.407
[6]; first compound 0.01 µM
  relative viability: 0.641
[6]; first compound 0.03162 µM
  relative viability: 0.72
[6]; first compound 0.3162 µM
  relative viability: 0.644
[7]; first compound 0.03162 µM
  relative viability: 0.457
[7]; first compound 0.3162 µM
  relative viability: 0.46
[8]; first compound 0.01 µM
  relative viability: 0.709
[8]; first compound 0.03162 µM
  relative viability: 0.774
[8]; first compound 0.3162 µM
  relative viability: 0.808
[9]; first compound 0.01 µM
  relative viability: 0.428
[9]; first compound 0.03162 µM
  relative viability: 0.656
[9]; first compound 0.3162 µM
  relative viability: 0.696
[10]; first compound 0.01 µM
  relative viability: 0.317
[10]; first compound 0.03162 µM
  relative viability: 0.373
[10]; first compound 0.3162 µM
  relative viability: 0.339
[11]; first compound 0.03162 µM
  relative viability: 0.433
[11]; first compound 0.3162 µM
  relative viability: 0.45
[12]; first compound 0.01 µM
  relative viability: 0.536
[12]; first compound 0.03162 µM
  relative viability: 0.654
[12]; first compound 0.3162 µM
  relative viability: 0.532
[13]; first compound 0.01 µM
  relative viability: 0.504
[13]; first compound 0.03162 µM
  relative viability: 0.456
[13]; first compound 0.3162 µM
  relative viability: 0.52
[14]; first compound 0.01 µM
  relative viability: 0.135
[14]; first compound 0.03162 µM
  relative viability: 0.231
[14]; first compound 0.3162 µM
  relative viability: 0.205
[15]; first compound 0.01 µM
  relative viability: 0.252
[15]; first compound 0.03162 µM
  relative viability: 0.289
[15]; first compound 0.3162 µM
  relative viability: 0.276
[16]; first compound 0.01 µM
  relative viability: 0.192
[16]; first compound 0.03162 µM
  relative viability: 0.201
[16]; first compound 0.3162 µM
  relative viability: 0.195
[17]; first compound 0.01 µM
  relative viability: 0.455
[17]; first compound 0.03162 µM
  relative viability: 0.485
[17]; first compound 0.3162 µM
  relative viability: 0.475
[18]; first compound 0.01 µM
  relative viability: 0.813
[18]; first compound 0.03162 µM
  relative viability: 0.782
[18]; first compound 0.3162 µM
  relative viability: 0.609
[19]; first compound 0.01 µM
  relative viability: 0.645
[19]; first compound 0.03162 µM
  relative viability: 0.609
[19]; first compound 0.3162 µM
  relative viability: 0.604
[20]; first compound 0.01 µM
  relative viability: 1.03
[20]; first compound 0.03162 µM
  relative viability: 0.968
[20]; first compound 0.3162 µM
  relative viability: 0.985
[21]; first compound 0.01 µM
  relative viability: 0.532
[21]; first compound 0.03162 µM
  relative viability: 0.569
[21]; first compound 0.3162 µM
  relative viability: 0.572
[22]; first compound 0.01 µM
  relative viability: 0.146
[22]; first compound 0.03162 µM
  relative viability: 0.449
[22]; first compound 0.3162 µM
  relative viability: 0.261
[23]; first compound 0.01 µM
  relative viability: 0.593
[23]; first compound 0.03162 µM
  relative viability: 0.604
[23]; first compound 0.3162 µM
  relative viability: 0.548
